From US20130079345A1, “[…] ACTIVE DISUBSTITUTED TRIAZINE DERIVATIVES” (BAYER INTELLECTUAL PROPERTY GMBH, priority 2010, published 2013)
Counter-ions that a name gives are not always drawn.

Legend:
B16F10 cells = assay: Cell viability, B16F10 cells; type: cell-based, mouse
Experimental: (§1) HeLa- or MDAMB468-Cells or MATU ADR, H460, DU145, CACO-2 or B16F10 cells were maintained in RPMI 1640 or McCoy's 5A cell culture medium+glutamine (PAN Biotech GmbH, Aidenbach, Germany; order no. P04-22100; P04-05500) supplemented with 10% fetal calf serum “Gold” (PAA Laboratories GmbH, Pasching, Austria; order no. A15-151) and grown at 37° C., 5% CO2. For the cell viability assay, cells were seeded with a density of 400 (Hela cells, DSMZ Braunschweig order no. ACC57) or 800 (MDAMB468 cells, ATCC order no. HTB-132) per well in 25 μL in 384-well plates (Greiner Bio-One, Frickenhausen, Germany; order no. 781080). After overnight incubation at 37° C./5% CO2, 25 nL or 75 nL compound were added to each sample well by using BIOMEK FXP Laboratory Automation Workstation (Beckman Coulter, USA). Wells with cells and 0.1% or 0.3% DMSO in culture medium were used as positive controls, wells with cells and 10 μM staurosporine in culture medium were used as negative controls. The cells were incubated with the compounds for 72 h at 37° C./5% CO2. For measurement of cell viability […] Cell Titer Glo reagent (Promega, Madison, USA; order no. G7573), 1:2 diluted with cell culture medium, was added to each well. The 384well-plates were placed for 2 min on an orbital microplate shaker and incubated for further 10 min at room temperature to stabilize the luminescence signal. Luminescence was measured by Envision Plate Reader (Perkin Elmer, USA). EC50 values were calculated with the software Excel Fit (IDBS, Guildford, UK) from 3-fold dilution series comprising at least 8 concentrations in duplicates.
(§2) Cultivated tumour cells (NCl-H460, human non-small cell lung carcinoma cells, ATCC HTB-177; DU 145, hormone-independent human prostate carcinoma cells, ATCC HTB-81; HeLa-MaTu, human cervical carcinoma cells, EPO-GmbH, Berlin; HeLa-MaTu-ADR, multidrug-resistant human cervical carcinoma cells, EPO-GmbH, Berlin; HeLa human cervical tumour cells, ATCC CCL-2; Caco-2 human colorectal carcinoma, ATCC HTB-37; B16F10 mouse melanoma cells, ATCC CRL-6475) were plated at a density of 5,000 cells/well (DU145, HeLa-MaTu-ADR), 3,000 cells/well (NCl-H460, HeLa-MaTu, HeLa), 1,500 cells/well (Caco-2), or 1,000 cells/well (B16F10) in a 96-well multititer plate in 200 μL of their respective growth medium supplemented with 10% fetal calf serum. After 24 hours, the cells of one plate (zero-point plate) were stained with crystal violet (see below), while the medium of the other plates was replaced by fresh culture medium (200 μl), to which the test substances were added in various concentrations (0 μM as well as in the range of 0.001 to 10 μM; the final concentration of the solvent dimethyl sulfoxide was 0.5%). The cells were incubated in the presence of test substances for 4 days. Cell proliferation was determined by staining the cells with crystal violet: The cells were fixed by adding 20 μl/measuring point of an 11% glutaric aldehyde solution at room temperature for 15 minutes. After three washing cycles of the fixed cells with water, the plates were dried at room temperature. […] The extinction was determined by photometry at a wavelength of 595 nm. The change of cell number, in percent, was calculated by normalization of the measured values to the extinction values of the zero-point plate (equivalent to 0%) and the extinction of the untreated (0 μm) cells (equivalent to 100%). The IC50 values were determined by means of a 4 parameter fit using the company's own software.

MDAMB468 cells = assay: Cell viability assay, MDAMB468 cells; type: cell-based; settings: Homo sapiens, MDA-MB-468, 72 h, Cell Titer Glo
Experimental: as §1

DU145 cells = assay: Cell viability, DU145 cells; type: cell-based, human
Experimental: as §1, §2

HeLa cells = assay: Cell viability, HeLa cells; type: cell-based; settings: Homo sapiens
Experimental: as §1
Cultivated tumour cells (NCl-H460, human non-small cell lung carcinoma cells, ATCC HTB-177; DU 145, hormone-independent human prostate carcinoma cells, ATCC HTB-81; HeLa-MaTu, human cervical carcinoma cells, EPO-GmbH, Berlin; HeLa-MaTu-ADR, multidrug-resistant human cervical carcinoma cells, EPO-GmbH, Berlin; HeLa human cervical tumour cells, ATCC CCL-2; Caco-2 human colorectal carcinoma, ATCC HTB-37; B16F10 mouse melanoma cells, ATCC CRL-6475) were plated at a density of 5,000 cells/well (DU145, HeLa-MaTu-ADR), 3,000 cells/well (NCl-H460, HeLa-MaTu, HeLa), 1,500 cells/well (Caco-2), or 1,000 cells/well (B16F10) in a 96-well multititer plate in 200 μL of their respective growth medium supplemented with 10% fetal calf serum. After 24 hours, the cells of one plate (zero-point plate) were stained with crystal violet (see below), while the medium of the other plates was replaced by fresh culture medium (200 μl), to which the test substances were added in various concentrations (0 μM as well as in the range of 0.001 to 10 μM; the final concentration of the solvent dimethyl sulfoxide was 0.5%). The cells were incubated in the presence of test substances for 4 days. Cell proliferation was determined by staining the cells with crystal violet: The cells were fixed by adding 20 μl/measuring point of an 11% glutaric aldehyde solution at room temperature for 15 minutes. After three washing cycles of the fixed cells with water, the plates were dried at room temperature. The cells were stained by adding 100 μl/measuring point of a 0.1% crystal violet solution (pH 3.0). After three washing cycles of the stained cells with water, the plates were dried at room temperature. The dye was dissolved by adding 100 μl/measuring point of a 10% acetic acid solution. The extinction was determined by photometry at a wavelength of 595 nm. The change of cell number, in percent, was calculated by normalization of the measured values to the extinction values of the zero-point plate (equivalent to 0%) and the extinction of the untreated (0 μm) cells (equivalent to 100%). The IC50 values were determined by means of a 4 parameter fit using the company's own software.

MaTu/ADR cells = assay: Cell viability, MaTu/ADR cells; type: cell-based; settings: Homo sapiens
Experimental: HeLa- or MDAMB468-Cells or MATU ADR, H460, DU145, CACO-2 or B16F10 cells were maintained in RPMI 1640 or McCoy's 5A cell culture medium+glutamine (PAN Biotech GmbH, Aidenbach, Germany; order no. P04-22100; P04-05500) supplemented with 10% fetal calf serum “Gold” (PAA Laboratories GmbH, Pasching, Austria; order no. A15-151) and grown at 37° C., 5% CO2. For the cell viability assay, cells were seeded with a density of 400 (Hela cells, DSMZ Braunschweig order no. ACC57) or 800 (MDAMB468 cells, ATCC order no. HTB-132) per well in 25 μL in 384-well plates (Greiner Bio-One, Frickenhausen, Germany; order no. 781080). After overnight incubation at 37° C./5% CO2, 25 nL or 75 nL compound were added to each sample well by using BIOMEK FXP Laboratory Automation Workstation (Beckman Coulter, USA). Wells with cells and 0.1% or 0.3% DMSO in culture medium were used as positive controls, wells with cells and 10 μM staurosporine in culture medium were used as negative controls. The cells were incubated with the compounds for 72 h at 37° C./5% CO2. For measurement of cell viability […] Cell Titer Glo reagent (Promega, Madison, USA; order no. G7573), 1:2 diluted with cell culture medium, was added to each well. The 384well-plates were placed for 2 min on an orbital microplate shaker and incubated for further 10 min at room temperature to stabilize the luminescence signal. Luminescence was measured by Envision Plate Reader (Perkin Elmer, USA). […]
as §2, with “After 24 hours, the cells of one plate (zero-point plate) were stained with crystal violet (see below), while the medium of the other plates was replaced by fresh culture medium (200 μl), to which the test substances were added in various concentrations (0 μM as well as in the range of 0.001 to 10 μM; the final concentration of the solvent dimethyl sulfoxide was 0.5%). The cells were incubated in the presence of test substances for 4 days.” left out, “minutes.” for “minutes. After three washing cycles of the fixed cells with water, the plates were dried at room temperature.”

H460 cells = assay: Cell viability, H460 cells; type: cell-based, human
Experimental: as §1, §2

CACO-2 cells = assay: Cell viability, CACO-2 cells; type: cell-based, human
Experimental: as §1, §2

Structure (SMILES): COc1ccccc1-c1ncnc(Nc2cccc(CS(N)(=O)=O)c2)n1 [B1′, 3-[(4-(2-Methoxyphenyl)-1,3,5-triazin-2-yl)amino]benzenemethanesulfonamide trifluoroacetic acid salt]
- IC50 (B16F10 cells; Mus musculus, B16-F10): 4400 nM
- IC50 (MDAMB468 cells): 2990 nM
- IC50 (DU145 cells; Homo sapiens, DU-145): 3800 nM
- IC50 (HeLa cells): 3200 nM
- IC50 (MaTu/ADR cells): 3200 nM
- IC50 (H460 cells; Homo sapiens, NCI-H460): 3500 nM
- IC50 (CACO-2 cells; Homo sapiens, Caco-2): 4300 nM

Structure (SMILES): COc1cc(F)ccc1-c1ncnc(Nc2cccc(CS(N)(=O)=O)c2)n1 [B2′, 1-(3-{[4-(4-fluoro-2-methoxyphenyl)-1,3,5-triazin-2-yl]amino}phenyl)methanesulfonamide hydrochloride]
- IC50 (B16F10 cells; hydrochloride): 1100 nM
- IC50 (DU145 cells; hydrochloride): 1000 nM
- IC50 (H460 cells; hydrochloride): 1500 nM
- IC50 (CACO-2 cells; hydrochloride): 1500 nM

Structure (SMILES): NS(=O)(=O)Cc1cccc(Nc2ncnc(-c3ccccc3OCc3ccccc3)n2)c1 [B13′, 3-[(4-(2-Benzyloxyphenyl)-1,3,5-triazin-2-yl)amino]benzenemethanesulfonamide trifluoroacetic acid salt]
- IC50 (B16F10 cells; Mus musculus, B16-F10): 320 nM
- IC50 (MDAMB468 cells): 160 nM
- IC50 (DU145 cells; Homo sapiens, DU-145): 330 nM
- IC50 (HeLa cells): 310 nM
- IC50 (MaTu/ADR cells): 290 nM
- IC50 (H460 cells; Homo sapiens, NCI-H460): 320 nM
- IC50 (CACO-2 cells; Homo sapiens, Caco-2): 370 nM

Structure (SMILES): COc1ccccc1-c1ncnc(Nc2cccc(S(N)(=O)=O)c2)n1 [C1′, 3-[(4-(2-Methoxyphenyl)-1,3,5-triazin-2-yl)amino]benzenesulfonamide trifluoroacetic acid salt]
- IC50 (B16F10 cells; Mus musculus, B16-F10): 1000 nM
- IC50 (MDAMB468 cells): 800 nM
- IC50 (DU145 cells; Homo sapiens, DU-145): 1000 nM
- IC50 (HeLa cells): 1000 nM
- IC50 (MaTu/ADR cells): 760 nM
- IC50 (H460 cells; Homo sapiens, NCI-H460): 1100 nM
- IC50 (CACO-2 cells; Homo sapiens, Caco-2): 1100 nM

Structure (SMILES): COc1cc(F)ccc1-c1ncnc(Nc2cccc(CS(N)(=O)=O)c2)n1 [Compound B2, 3-[(4-(4-Fluoro-2-methoxyphenyl)-1,3,5-triazin-2-yl)amino]benzenemethanesulfonamide]
- IC50 (B16F10 cells; Mus musculus, B16-F10): 1600 nM
- IC50 (MDAMB468 cells): 420 nM
- IC50 (DU145 cells; Homo sapiens, DU-145): 1500 nM
- IC50 (HeLa cells): 1000 nM
- IC50 (MaTu/ADR cells): 1000 nM
- IC50 (H460 cells; Homo sapiens, NCI-H460): 1300 nM
- IC50 (CACO-2 cells; Homo sapiens, Caco-2): 1600 nM

Structure (SMILES): COc1ccccc1-c1ncnc(Nc2cccc(CCS(N)(=O)=O)c2)n1 [Compound D1, 2-[3-((4-(2-Methoxyphenyl)-1,3,5-triazin-2-yl)amino)phenyl]ethanesulfonamide]
- IC50 (MDAMB468 cells): 4610 nM

Structure (SMILES): COc1ccccc1-c1ncnc(Nc2cccc([N+](=O)[O-])c2)n1 [Compound H1, 4-(2-Methoxyphenyl)-N-(3-nitrophenyl)-1,3,5-triazine-2-amine]
- IC50 (MDAMB468 cells): 830 nM

Structure (SMILES): CCCS(=O)(=O)Nc1cccc(Nc2ncnc(-c3ccccc3OC)n2)c1 [Compound L1, N-[3-((4-(2-Methoxyphenyl)-1,3,5-triazin-2-yl)amino)phenyl]-propanesulfonamide]
- IC50 (MDAMB468 cells): 4500 nM

Structure (SMILES): COc1ccccc1-c1ncnc(Nc2ccccc2)n1 [Compound P1, 4-(2-Methoxyphenyl)-N-phenyl-1,3,5-triazine-2-amine]
- IC50 (MDAMB468 cells): 13300 nM

Structure (SMILES): CC(C)Oc1cc(F)ccc1-c1ncnc(Nc2cccc(CS(N)(=O)=O)c2)n1 [Compound U2, 1-[3-({4-[4-fluoro-2-(propan-2-yloxy)phenyl]-1,3,5-triazin-2-yl}amino)phenyl]methanesulfonamide]
- IC50 (HeLa cells): 2700 nM

Structure (SMILES): N#Cc1cc(F)ccc1-c1ncnc(Nc2cccc(CS(N)(=O)=O)c2)n1 [Compound U3, 1-(3-{[4-(2-cyano-4-fluorophenyl)-1,3,5-triazin-2-yl]amino}phenyl)methanesulfonamide]
- IC50 (HeLa cells): 10000 nM

Structure (SMILES): COc1cc(F)c(F)cc1-c1ncnc(Nc2cccc(CS(N)(=O)=O)c2)n1 [Compound U7, 1-(3-{[4-(4,5-difluoro-2-methoxyphenyl)-1,3,5-triazin-2-yl]amino}phenyl)methanesulfonamide]
- IC50 (HeLa cells): 1200 nM

Structure (SMILES): COc1cc(F)ccc1-c1ncnc(Nc2ccc(S(C)(=O)=O)nc2)n1 [Compound U8, 4-(4-fluoro-2-methoxyphenyl)-N-[6-(methylsulfonyl)pyridin-3-yl]-1,3,5-triazin-2-amine]
- IC50 (HeLa cells): 4200 nM

Structure (SMILES): CNS(=O)(=O)Cc1cccc(Nc2cc(-c3ccccc3OC)ncn2)c1 [Ref2, C-{3-[6-(2-Methoxy-phenyl)-pyrimidin-4-ylamino]-phenyl}-N-methyl methanesulfonamide, reference compound]
- IC50 (HeLa cells): 4600 nM

Structure (SMILES): COc1ccccc1-c1cc(Nc2cccc(CS(=O)(=O)N(C)C)c2)ncn1 [Ref4, C-{3-[6-(2-Methoxy-phenyl)-pyrimidin-4-ylamino]-phenyl}-N,N-dimethylmethanesulfonamide, reference compound]
- IC50 (HeLa cells): 6100 nM
